Measurements from ChEMBL document CHEMBL3576804, “Novel Potent Orthosteric Antagonist of ASIC1a Prevents NMDAR-Dependent LTP Induction” (J Med Chem, 2015).
Activity calls are given as the source filed them. The calls are words filed in the database; no cut-off is given here.

Legend:
Format in all cases: cell-based
[1] = target: T1, Acid-sensing ion channel 1 (Homo sapiens) (UniProt P78348); test: Inhibition of human ASIC1a endogenously expressed in HEK293 cells clamped at -100 mV gated ionic current at 100 uM at pH 5.0 by standard whole cell patch clamp assay
T1 sequence (whole entry): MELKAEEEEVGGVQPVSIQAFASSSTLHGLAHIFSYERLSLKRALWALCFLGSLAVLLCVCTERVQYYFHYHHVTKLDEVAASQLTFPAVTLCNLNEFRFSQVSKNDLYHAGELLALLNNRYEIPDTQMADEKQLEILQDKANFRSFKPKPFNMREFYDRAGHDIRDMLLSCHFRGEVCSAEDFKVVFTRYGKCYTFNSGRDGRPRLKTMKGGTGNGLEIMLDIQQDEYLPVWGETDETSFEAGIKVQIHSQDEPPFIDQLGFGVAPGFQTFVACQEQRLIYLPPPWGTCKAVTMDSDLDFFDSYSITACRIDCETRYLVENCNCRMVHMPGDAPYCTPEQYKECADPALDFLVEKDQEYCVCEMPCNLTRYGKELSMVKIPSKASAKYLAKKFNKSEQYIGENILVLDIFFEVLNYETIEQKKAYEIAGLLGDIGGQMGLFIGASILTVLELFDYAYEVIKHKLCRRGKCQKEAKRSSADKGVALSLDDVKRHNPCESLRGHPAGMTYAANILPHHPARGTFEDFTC

[2] = target: T1, Acid-sensing ion channel 1 (Homo sapiens); test: Inhibition of human ASIC1a endogenously expressed in HEK293 cells clamped at -100 mV gated ionic current at 10 uM at pH 5.0 by standard whole cell patch clamp assay
[3] = target: T1, Acid-sensing ion channel 1 (Homo sapiens); test: Inhibition of human ASIC1a endogenously expressed in HEK293 cells clamped at -100 mV gated ionic current at 100 uM at pH 6.7 by standard whole cell patch clamp assay
[4] = target: T1, Acid-sensing ion channel 1 (Homo sapiens); test: Inhibition of human ASIC1a endogenously expressed in HEK293 cells clamped at -100 mV gated ionic current at 10 uM at pH 6.7 by standard whole cell patch clamp assay
[5] = target: T1, Acid-sensing ion channel 1 (Homo sapiens); test: Inhibition of human ASIC1a endogenously expressed in HEK293 cells clamped at -100 mV gated ionic current at 10 uM by standard whole cell patch clamp assay
[6] = target: T1, Acid-sensing ion channel 1 (Homo sapiens); test: Inhibition of human ASIC1a endogenously expressed in HEK293 cells clamped at -20 mV gated ionic current at 10 uM by standard whole cell patch clamp assay
[7] = target: T1, Acid-sensing ion channel 1 (Homo sapiens); test: Inhibition of human ASIC1a endogenously expressed in HEK293 cells clamped at -100 mV gated ionic current at 10 uM in presence of cellular membrane depolarization by standard whole cell patch clamp assay

inhibition [1] [%] | inhibition [2] [%] | inhibition [3] [%] | inhibition [4] [%] | Compound | inhibition [5] [%] | inhibition [6] [%] | inhibition [7]
36.6 | 79.2 | 22.3 | 42.9 | CN(Cc1ccccc1)c1ccc2cc(C(=N)N)c(=O)oc2c1 |  |  | 
 |  |  |  | N=C(N)NC(=O)c1nc(Cl)c(N)nc1N | 41.3 | 60.7 | inactive
